The text below walks through data of patent US12384776B2, “Compounds and uses thereof” (Foghorn Therapeutics Inc., priority 2019, dated 2025).

Sequence of Nanoluciferase-BRD9 fusion protein (3×FLAG-NLuc-BRD9) in SYO-1 cells (Q9H8M2 whole entry, the tested form may be a part): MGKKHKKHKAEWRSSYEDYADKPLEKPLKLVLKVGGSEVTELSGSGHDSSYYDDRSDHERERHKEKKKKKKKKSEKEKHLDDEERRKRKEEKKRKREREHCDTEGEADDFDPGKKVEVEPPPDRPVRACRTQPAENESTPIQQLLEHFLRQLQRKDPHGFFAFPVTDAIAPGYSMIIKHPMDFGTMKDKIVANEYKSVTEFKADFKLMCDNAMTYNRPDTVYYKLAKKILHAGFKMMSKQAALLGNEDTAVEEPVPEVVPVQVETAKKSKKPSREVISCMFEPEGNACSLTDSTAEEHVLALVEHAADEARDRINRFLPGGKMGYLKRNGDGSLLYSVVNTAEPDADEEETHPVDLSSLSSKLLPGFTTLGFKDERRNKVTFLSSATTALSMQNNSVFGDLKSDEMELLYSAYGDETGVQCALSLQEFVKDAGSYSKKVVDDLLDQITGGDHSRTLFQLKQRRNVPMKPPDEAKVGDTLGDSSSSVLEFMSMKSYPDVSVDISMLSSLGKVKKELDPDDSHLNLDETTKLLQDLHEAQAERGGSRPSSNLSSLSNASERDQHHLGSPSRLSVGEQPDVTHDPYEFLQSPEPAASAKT

The first assay addresses Nanoluciferase-BRD9 fusion protein (3×FLAG-NLuc-BRD9) in SYO-1 cells (Homo sapiens (Human), UniProt Q9H8M2). As to the kind of experiment: SYO1 BRD9 NanoLuc degradation assay. The format is cell-based. Particulars: SYO-1 cells expressing 3×FLAG-NLuc-BRD9, 6 hours incubation, top dose 1 μM. In short, it runs like this:
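Stable SYO-1 line expressing 3×FLAG-NLuc-BRD9, treated with 10-point 3-fold dilutions (top 1 μM final) for 6 hours. Nanoluciferase luminescence read with Nano-Glo reagent. % inhibition relative to DMSO (high control) and 1 μM reference BRD9 degrader (low control).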
Take `CNC(=O)N1CCc2c(-c3cc(OC)c(CN4CC(S(=O)(=O)NCCCCOc5ccc6c(c5)C(=O)N(C5CCC(=O)NC5=O)C6=O)C4)c(OC)c3)cn(C)c(=O)c2C1` (stereo not shown) [Compound D278]: the half-maximal inhibitory concentration (IC50) (in general, the concentration that inhibits the measured activity by half) is 10 to 100 nM.

Consider `CNC(=O)N1CCc2c(-c3cc(OC)c(CN4CC(S(=O)(=O)NCCOc5ccc6c(c5)C(=O)N(C5CCC(=O)NC5=O)C6=O)C4)c(OC)c3)cn(C)c(=O)c2C1` (stereo not shown) [Compound D279], for which the IC50 lay in the range of 100 to 1000 nM.

Consider `CNC(=O)N1CCc2c(-c3cc(OC)c(CN4CC(S(=O)(=O)NCCCOc5cccc6c5C(=O)N(C5CCC(=O)NC5=O)C6=O)C4)c(OC)c3)cn(C)c(=O)c2C1` (stereo not shown) [Compound D280], for which the IC50 lay in the range of 100 to 1000 nM.

The compound `CNC(=O)N1CCc2c(-c3cc(OC)c(CN4CC(S(=O)(=O)NCCCCOc5cccc6c5C(=O)N(C5CCC(=O)NC5=O)C6=O)C4)c(OC)c3)cn(C)c(=O)c2C1` (stereo not shown) [Compound D281] had a half-maximal inhibitory concentration (IC50) of 10 to 100 nM.

As for `CNC(=O)N1CCc2c(-c3cc(OC)c(CN4CC(S(=O)(=O)NCCOc5cccc6c5C(=O)N(C5CCC(=O)NC5=O)C6=O)C4)c(OC)c3)cn(C)c(=O)c2C1` (stereo not shown) [Compound D282], the 50% inhibitory concentration (IC50) lay in the range of 100 to 1000 nM.

On to `CNC(=O)N1CCc2c(-c3cc(OC)c(CN(C)C45CC(C(=O)NCCCCCOc6cccc7c6C(=O)N(C6CCC(=O)NC6=O)C7=O)(C4)C5)c(OC)c3)cn(C)c(=O)c2C1` (stereo not shown) [Compound D283], for which the IC50 was under 10 nM.

`CNC(=O)N1CCc2c(-c3cc(OC)c(CN(C)CCOCCN4CCN(c5ccc6c(c5)C(=O)N(C5CCC(=O)NC5=O)C6=O)CC4)c(OC)c3)cn(C)c(=O)c2C1` (stereo not shown) [Compound D284] showed an IC50 of 10 to 100 nM.

Consider `CNC(=O)N1CCc2c(-c3cc(OC)c(CN(C)CC45CC(C(=O)NCCCCCOc6ccc7c(c6)C(=O)N(C6CCC(=O)NC6=O)C7=O)(C4)C5)c(OC)c3)cn(C)c(=O)c2C1` (stereo not shown) [Compound D286], for which the IC50 was 100 to 1000 nM.

The compound `CNC(=O)N1CCc2c(-c3cc(OC)c(CN4CC(S(=O)(=O)NCCN5CCN(c6ccc7c(c6)C(=O)N(C6CCC(=O)NC6=O)C7=O)CC5)C4)c(OC)c3)cn(C)c(=O)c2C1` (stereo not shown) [Compound D287] gave an IC50 of 100 to 1000 nM.

Regarding `CNC(=O)N1CCc2c(-c3cc(OC)c(CN(C)CC45CC(C(=O)NCCCCCOc6cccc7c6C(=O)N(C6CCC(=O)NC6=O)C7=O)(C4)C5)c(OC)c3)cn(C)c(=O)c2C1` (stereo not shown) [Compound D288], the IC50 fell in the range of 100 to 1000 nM.

`CNC(=O)N1CCc2c(-c3cc(OC)c(CN4CC5CN(C(=O)CCOCCOc6ccc7c(c6)C(=O)N(C6CCC(=O)NC6=O)C7=O)CCC54)c(OC)c3)cn(C)c(=O)c2C1` (stereo not shown) [Compound D289] came in with an IC50 of 10 to 100 nM.

As to `COc1cc(-c2cn(C)c(=O)c3c2CCN(C(=O)NCCN(C)CCNC(=O)COc2ccc4c(c2)CN(C2CCC(=O)NC2=O)C4=O)C3)cc(OC)c1CN(C)C` (stereo not shown) [Compound D290], the IC50 is at least 1000 nM.

In turn, `COc1cc(-c2cn(C)c(=O)c3c2CCN(C(=O)NCCCCCCCCNc2cccc4nc(C)n(C5CCC(=O)NC5=O)c(=O)c24)C3)cc(OC)c1CN(C)C` (stereo not shown) [Compound D291] returned a concentration for half-maximal inhibition (IC50) of 10 to 100 nM.

`COc1cc(-c2cn(C)c(=O)c3c2CCN(C(=O)NCCOCCOCCNc2cccc4nc(C)n(C5CCC(=O)NC5=O)c(=O)c24)C3)cc(OC)c1CN(C)C` (stereo not shown) [Compound D292] had an IC50 of 100 to 1000 nM.

`CNC(=O)N1CCc2c(c(-c3cc(OC)c(CN(C)CC45CC(C(=O)NCCCCCOc6cccc7c6C(=O)N(C6CCC(=O)NC6=O)C7=O)(C4)C5)c(OC)c3)cn(C)c2=O)C1` (stereo not shown) [Compound D294] returned an IC50 of at least 1000 nM.

`CNC(=O)N1CCc2c(c(-c3cc(OC)c(CN4CC5CN(C(=O)CCOCCOc6ccc7c(c6)C(=O)N(C6CCC(=O)NC6=O)C7=O)CCC54)c(OC)c3)cn(C)c2=O)C1` (stereo not shown) [Compound D295] had an IC50 of 100 to 1000 nM.

`CNC(=O)N1CCc2c(c(-c3cc(OC)c(CN(C)CCOCCN4CCN(c5ccc6c(c5)C(=O)N(C5CCC(=O)NC5=O)C6=O)CC4)c(OC)c3)cn(C)c2=O)C1` (stereo not shown) [Compound D296] had an IC50 of at least 1000 nM.

Take `CNC(=O)N1CCc2c(c(-c3cc(OC)c(CN(C)CC(=O)NCCOCCOc4cccc5c4C(=O)N(C4CCC(=O)NC4=O)C5=O)c(OC)c3)cn(C)c2=O)C1` (stereo not shown) [Compound D297]: the half-inhibitory concentration (IC50) is at least 1000 nM.

In turn, `COc1cc(-c2cn(C)c(=O)c3c2CN(C(=O)N(C)C)CC3)cc(OC)c1CN(C)CCOCCN1CCN(c2ccc3c(c2)C(=O)N(C2CCC(=O)NC2=O)C3=O)CC1` (stereo not shown) [Compound D298] returned an IC50 of at least 1000 nM.

With `CNC(=O)N1Cc2c(-c3cc(OC)c(CN4CCC(CCN5CCN(c6ccc7c(c6)C(=O)N(C6CCC(=O)NC6=O)C7=O)CC5)CC4)c(OC)c3)cn(C)c(=O)c2C1` (stereo not shown) [Compound D299], the IC50 is under 10 nM.

For `CNC(=O)N1Cc2c(-c3cc(OC)c(CN4CCC5(CC4)CN(c4ccc6c(c4)C(=O)N([C@@H]4CCC(=O)NC4=O)C6=O)C5)c(OC)c3)cn(C)c(=O)c2C1` [Compound D300], the IC50 is under 10 nM.

The compound `COc1cc(-c2cn(C)c(=O)c3c2CCCC3)cc(OC)c1CN1CC(CN2CCC3(CC2)CN(c2ccc4c(c2)C(=O)N(C2CCC(=O)NC2=O)C4)C3)C1` (stereo not shown) [Compound D301] came in with an IC50 of under 10 nM.

As for `COc1cc(-c2cn(C)c(=O)c3c2COC3)cc(OC)c1CN1CC(CN2CCC3(CC2)CN(c2ccc4c(c2)C(=O)N(C2CCC(=O)NC2=O)C4)C3)C1` (stereo not shown) [Compound D302], the IC50 is under 10 nM.

Still in this assay, the particulars now being: SYO-1 cells expressing 3×FLAG-NLuc-BRD9, 6 hours incubation, top dose 1 μM; read-out: SYO1 BRD9-NanoLuc degradation IC50.
Turning to `COc1cc(-c2cn(C)c(=O)c3c2CN(C)CC3)cc(OC)c1CN1CC(CN2CCC3(CC2)CN(c2ccc4c(c2)C(=O)N(C2CCC(=O)NC2=O)C4)C3)C1` (stereo not shown) [Compound D293], the DC50 lay within 100 to 1000 nM.

The same assay, now with this note: SYO-1 cells, 6 hours, Table 6C.
The compound `CNC(=O)N1CCc2c(-c3cc(OC)c(C4CN(c5ccc6c(c5)C(=O)N(C5CCC(=O)NC5=O)C6=O)C4)c(OC)c3)cn(C)c(=O)c2C1` (stereo not shown) [Compound D303] had an IC50 of under 10 nM.

On to `CNC(=O)N1CCc2c(-c3cc(OC)c(CN4CCC5(CN(c6ccc7c(c6)C(=O)N(C6CCC(=O)NC6=O)C7)C5)C(C)C4)c(OC)c3)cn(C)c(=O)c2C1` (stereo not shown) [Compound D304], for which the IC50 is under 10 nM.

As for `CNC(=O)N1CCc2c(-c3cc(OC)c(CN4CCN(CCC5CCN(c6ccc7c(c6)C(=O)N(C6CCC(=O)N(C)C6=O)C7)CC5)CC4)c(OC)c3)cn(C)c(=O)c2C1` (stereo not shown) [Compound D305], the IC50 is at least 1000 nM.

The compound `CNC(=O)N1CCc2c(-c3cc(OC)c(CN4CCC5(CN(c6ccc7c(c6)C(=O)N(C6CCC(=O)NC6=O)C7)C5)C(F)(F)C4)c(OC)c3)cn(C)c(=O)c2C1` (stereo not shown) [Compound D306] showed an IC50 of under 10 nM.

The compound `COc1cc(-c2cn(C)c(=O)c3c2CCN(C(=O)NCC(F)F)C3)cc(OC)c1CN(C)c1ccc2c(c1)C(=O)N(C1CCC(=O)NC1=O)C2` (stereo not shown) [Compound D307] showed an IC50 of under 10 nM.

For `CNC(=O)N1CCc2c(-c3cc(OC)c(CN4CCC5(CC4)CN(c4ccc6c(c4)C(=O)N(C4CCC(=O)NC4=O)C6)C5)c(OC)c3)cn(C)c(=O)c2C1` (stereo not shown) [Compound D308], the IC50 is under 10 nM.

Compound `CNC(=O)N1CCc2c(-c3cc(OC)c(CN4CCN(CCC5CCN(c6ccc7c(c6)C(=O)N(C6CCC(=O)NC6=O)C7)CC5)CC4(C)C)c(OC)c3)cn(C)c(=O)c2C1` (stereo not shown) [Compound D309] gave an IC50 of under 10 nM.

Regarding `CNC(=O)N1CCc2c(-c3cc(OC)c(CN4CCN(CCC5CCN(c6ccc7c(c6)CN(C6CCC(=O)NC6=O)C7=O)CC5)CC45CC5)c(OC)c3)cn(C)c(=O)c2C1` (stereo not shown) [Compound D310], the 50% inhibitory concentration (IC50) was under 10 nM.

Take `COc1cc(-c2cn(C)c(=O)c3c2CCN(C(=O)NCC(F)F)C3)cc(OC)c1CN1CCN(CCC2CCN(c3ccc4c(c3)CN(C3CCC(=O)NC3=O)C4=O)CC2)CC12CC2` (stereo not shown) [Compound D311]: the IC50 is under 10 nM.

As to `COc1cc(-c2cn(C)c(=O)c3c2CCN(C(=O)NCC(F)F)C3)cc(OC)c1CN1CCN(CCC2CCN(c3ccc4c(c3)C(=O)N(C3CCC(=O)NC3=O)C4)CC2)CC12CC2` (stereo not shown) [Compound D312], the IC50 is under 10 nM.

As to `COc1cc(-c2cn(C)c(=O)c3c2CCN(C(=O)NCC(F)F)C3)cc(OC)c1CN1CCN(CCC2CCN(c3ccc4c(c3)C(=O)N(C3CCC(=O)NC3=O)C4)CC2)CC1(C)C` (stereo not shown) [Compound D313], the IC50 was at least 1000 nM.

`CNC(=O)N1CCc2c(-c3cc(OC)c(CN4CCN(CCC5CCN(c6ccc7c(c6)C(=O)N(C6CCC(=O)NC6=O)C7)CC5)CC45CC5)c(OC)c3)cn(C)c(=O)c2C1` (stereo not shown) [Compound D314] came in with an IC50 of under 10 nM.

Regarding `CNC(=O)N1CCc2c(-c3cc(OC)c(CN4CCC(CN5CCC6(CN(c7ccc8c(c7)C(=O)N(C7CCC(=O)NC7=O)C8)C6)C(F)(F)C5)CC4)c(OC)c3)cn(C)c(=O)c2C1` (stereo not shown) [Compound D315], the IC50 is under 10 nM.

On to `[2H]C([2H])([2H])n1cc(-c2cc(OC)c(CN3CCN(CCC4CCN(c5ccc6c(c5)C(=O)N(C5CCC(=O)NC5=O)C6)CC4)CC3)c(OC)c2)c2c(c1=O)CN(C(=O)NCC(F)F)CC2` (stereo not shown) [Compound D316], for which the half-inhibitory concentration (IC50) was at least 1000 nM.

For the compound `[2H]C([2H])([2H])n1cc(-c2cc(OC)c(CN3CCN(CCC4CCN(c5ccc6c(c5)CN(C5CCC(=O)NC5=O)C6=O)CC4)CC3)c(OC)c2)c2c(c1=O)CN(C(=O)NCC(F)F)CC2` (stereo not shown) [Compound D317], the IC50 is under 10 nM.

`[2H]C([2H])([2H])n1cc(-c2cc(OC)c(CN3[C@H](C)CN(CCC4CCN(c5ccc6c(c5)CN(C5CCC(=O)NC5=O)C6=O)CC4)C[C@H]3C)c(OC)c2)c2c(c1=O)CN(C(=O)NC)CC2` (stereo partly shown) [Compound D318] had an IC50 of under 10 nM.

As for `[2H]C([2H])([2H])n1cc(-c2cc(OC)c(CN3[C@H](C)CN(CCC4CCN(c5ccc6c(c5)C(=O)N(C5CCC(=O)NC5=O)C6)CC4)C[C@H]3C)c(OC)c2)c2c(c1=O)CN(C(=O)NC)CC2` (stereo partly shown) [Compound D319], the IC50 is under 10 nM.

`COc1cc(-c2cn(C)c(=O)c3c2CCN(C(=O)NCC(F)F)C3)cc(OC)c1CN1CCN(CCC2CCN(c3ccc4c(c3)CN(C3CCC(=O)NC3=O)C4=O)CC2)CC1(C)C` (stereo not shown) [Compound D320]: the IC50 was under 10 nM.

For the compound `CNC(=O)N1CCc2c(-c3cc(OC)c(CN4CCN(CCC5CCN(c6ccc7c(c6)CN(C6CCC(=O)NC6=O)C7=O)CC5)CC45CCC5)c(OC)c3)cn(C)c(=O)c2C1` (stereo not shown) [Compound D321], the IC50 is under 10 nM.
